From patent US12083082B2, “Methods for treating neurodegenerative disorders” (Alzheon, Inc., priority 2018, dated 2024)

Columns and labels:
[1] = in vivo; settings: rat, po
From the text: ALZ-801 is a valine conjugate of tramiprosate that has been optimized for improved pharmacokinetic properties and gastrointestinal tolerability. Chronic toxicology studies required for the advancement of ALZ-801 to Phase 3 have been completed, including the nonclinical safety characterization of ALZ-801, and the safety bridge to the extensive nonclinical toxicology and safety data for tramiprosate. […] See Hey et al., Clinical Pharmacokinetics and Safety of ALZ-801, a Novel Prodrug of Tramiprosate in Development for the Treatment of Alzheimer's Disease. Clin Pharmacokinetics 2018; 315-333 and Kocis et al., Elucidating the Abeta42 Anti-Aggregation Mechanism of Action of Tramiprosate in Alzheimer's Disease: Integrating Molecular Analytical Methods. Pharmacokinetic and Clinical Data. CNS Drugs 2017; 31:495-509. […] Both ALZ-801 and tramiprosate have consistent elimination half-life in plasma across species following repeated oral doses of ALZ-801, indicating no potential for accumulation after chronic dosing. Following conversion of ALZ-801 to tramiprosate, tramiprosate is consistently metabolized in vivo into a single major metabolite, 3-sulfopropanoic acid (3-SPA), in humans, mice, rats, dogs and minipigs.

[2] = molecular target: T1, recombinant human Aβ42 peptide (Homo sapiens, UniProt P05067); test: Ion mobility mass spectrometry (IMS MS) anti-Aβ42 oligomer activity / binding study; type: biochemical; design: key to Presence of Aβ42 Pentamer / Presence of Aβ42 Hexamer / Presence of Aβ42 Decamer / Presence of Aβ42 Dimer / Presence of Aβ42 Trimer / Presence of Aβ42 Tetramer: Y = yes, presence of oligomer species; N = no presence of oligomer species
T1 construct: recombinant human Aβ42 peptide; purchased BioLegend 843801
Method: The conditions used for mass spectrometry, using a Waters Synapt G2-S, were as follows: positive polarity in sensitivity mode, capillary=2.5 kV, nebulizer=2 mbar, source temperature=80° C., desolvation temperature=60° C., sample cone setting=35 V, source offset setting=60 V, and mass range=500 to 4000 m/z. These conditions were maintained throughout the study to ensure consistency of the data and to avoid influencing the detection of oligomers due to preferential ionization conditions.
Samples were directly infused into the mass spectrometer at a flow rate of 10 μL/min using a Protea PM-1000 Syringe Pump and Hamilton 1 mL Syringe. The data acquisition of the amyloid peptide was performed using a Waters Synapt G2-S quadrupole time of flight mass spectrometer (Q-TOF MS) with traveling wave ion mobility (Waters Corp., Milford, MA). The data were acquired using the systems sensitivity mode to allow for the detection of the less abundant oligomers. Samples were infused at room temperature. The IMS MS studies were conducted at Protea, Inc. (Morgantown, WV).
1 mg of recombinant human Aβ42 peptide from BioLegend (99% purity, cat #843801) was reconstituted in 200 μL of Fisher Optima LC/MS grade water (cat #W6-1) and vortexed vigorously for 2 minutes to solubilize the peptide creating a 5 mg/mL solution. Samples were then diluted to a final concentration of 22 pmol/μL prior to incubation. The sample mixtures were then incubated at room temperature for 0, 4 and 24 hours. After the acquisition of incubated samples was completed, the raw data were analyzed using the Waters MassLynx v2.4 suite with DriftScover v2.7 to visualize drift times for the peptide.
Aβ42 species characterization using IMS MS was performed by direct infusion at 22 pmol/μL in water. The peptide was prepared in water to maintain the native state conformation of the peptide and ion mobility data acquisition was performed to detect and characterize the conformational changes of the native state monomer and any oligomers that may have formed during the incubation.
The data acquisition for Aβ42 peptide was performed using a Waters Synapt G2-S quadrupole time of flight mass spectrometer (Q-TOF MS) with traveling wave ion mobility (Waters Corp., Milford, MA). The data were acquired using the systems sensitivity mode to allow for the detection of the less abundant oligomers. Samples were infused at room temperature as above.
1 mg of 3-SPA was reconstituted in 1 mL of Fisher Optima LC/MS grade water (cat #W6-1) and vortexed vigorously for 2 minutes until completely dissolved. The sample was then diluted to create […], and 22,000 pmol/μL solutions to perform a 100-fold, and 1,000-fold molar excess for the binding experiments with Aβ42 peptide.
1 mg of recombinant human Aβ42 peptide was reconstituted in 200 μL of Fisher Optima LC/MS grade water and vortexed vigorously to solubilize to a 5 mg/mL solution. Samples were then diluted to their final concentrations prior to incubation. The sample mixtures were incubated at room temperature for 0, 4 and 24 hours, followed by analysis as described above.
To address the high conformational flexibility of Aβ42 and to characterize its interaction with 3-SPA, we used ion mobility mass spectrometry (IMS), with a quadrupole time of flight mass spectrometer (Q-TOF MS) with traveling wave ion mobility. Resulting effect of modulation of Aβ conformational space is the prevention of oligomer formation. We have found not only concentration dependency but also time-dependency of this anti-Aβ42 oligomeric effect of 3-SPA as indicated in FIG. 3 and FIG. 4. 100- vs 1,000-fold molar excess of 3-SPA over Aβ42 results in a different sub-species profile of inhibition of Aβ42 oligomer formation. The activity is also compared with the same excess dependency of tramiprosate.

[3] = cited from earlier work
[4] = 100:1 excess ratio compound:protein
[5] = 1000:1 excess ratio compound:protein

T1 sequence (P05067 672-713 limits assumed): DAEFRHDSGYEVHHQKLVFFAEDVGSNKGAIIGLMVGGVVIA

Compound	NOAEL at 1 month [1] [mg/kg]	NOAEL at 6 month [1] [mg/kg]	Tolerability (in words) [1]	Presence of Aβ42 Decamer [2, 4]	Presence of Aβ42 Dimer [2, 4]	Presence of Aβ42 Hexamer [2, 4]	Presence of Aβ42 Pentamer [2, 4]	Presence of Aβ42 Tetramer [2, 4]	Presence of Aβ42 Trimer [2, 4]	Presence of Aβ42 Decamer [2, 5]	Presence of Aβ42 Dimer [2, 5]	Presence of Aβ42 Hexamer [2, 5]	Presence of Aβ42 Pentamer [2, 5]	Presence of Aβ42 Tetramer [2, 5]	Presence of Aβ42 Trimer [2, 5]	Inhibition of formation of Aβ42 oligomers (in words) ([2]; 24 hours incubation, 1,000-fold excess)	Safety profile (in words) ([3]; Phase 3 trials and safety extension, exposures of up to 2.5 years)	Effect on cognition (in words) ([3]; subgroup analysis of subjects with the ε4 allele of APOE (APOE4))
CC(C)[C@H](N)C(=O)NCCCS(=O)(=O)O [ALZ-801]	2000	1500	well tolerated															
NCCCS(=O)(=O)O [Tramiprosate, 3-amino-1-propanesulfonic acid, reference compound]				N	N	Y	Y	Y	Y	N	N	N	N	N	N	complete inhibition of formation of Aβ42 oligomers	favorable safety profile	positive and clinically meaningful benefit on cognition
